Tests used:
[1] = target: COX-1 (Ovis aries, UniProt P05979); assay: COX-1 inhibition assay (as disclosed in Chem. Med. Chem. 2012, 7, 629-641); type: biochemical
Experimental: The biological assays were carried out as disclosed in Chem. Med. Chem. 2012, 7, 629 - 641.

[2] = system: ovarian surface epithelial cells allografted in female nude mice; conditions: after treatment with SC-560, recent reports; cited from earlier work

Chain of COX-1 (P05979 25-600): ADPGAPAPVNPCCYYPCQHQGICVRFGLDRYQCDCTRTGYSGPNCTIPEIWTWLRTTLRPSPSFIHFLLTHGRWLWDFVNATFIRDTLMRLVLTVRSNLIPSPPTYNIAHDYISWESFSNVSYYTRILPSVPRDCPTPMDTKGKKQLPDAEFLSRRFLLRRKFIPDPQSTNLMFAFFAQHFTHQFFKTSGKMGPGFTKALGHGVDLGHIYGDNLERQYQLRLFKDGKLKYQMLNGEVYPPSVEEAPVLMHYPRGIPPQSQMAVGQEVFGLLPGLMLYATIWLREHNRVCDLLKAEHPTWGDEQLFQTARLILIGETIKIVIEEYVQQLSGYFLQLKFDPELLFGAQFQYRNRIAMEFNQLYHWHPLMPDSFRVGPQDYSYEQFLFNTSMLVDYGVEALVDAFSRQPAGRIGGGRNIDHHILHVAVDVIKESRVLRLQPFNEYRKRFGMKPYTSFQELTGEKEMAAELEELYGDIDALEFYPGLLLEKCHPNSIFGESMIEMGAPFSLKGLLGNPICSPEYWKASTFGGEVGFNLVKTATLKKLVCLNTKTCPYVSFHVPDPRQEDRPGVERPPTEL

Structure (SMILES): COc1ccc(-c2noc(C)c2-c2ccc(OC)cc2)cc1 [(III), 3,4-bis(4-methoxyphenyl)-5-methylisoxazole]
- IC50 [1]: 76 nM

Structure (SMILES): COc1ccc(-n2nc(C(F)(F)F)cc2-c2ccc(Cl)cc2)cc1 [SC-560]
- tumor growth [2]: significantly reduction of tumor growth

Source: EP2948187B1, “HETEROCYCLES AND THEIR RADIOLABELED ANALOGS USEFUL AS COX-1 SELECTIVE INHIBITORS” (Universita' Degli Studi di Bari, priority 2013, dated 2014)
